This note sets out measurements from patent US9493432B2, “Cyclopentylbenzamide derivatives and their use for the treatment of psychotic and cognitive disorders” (Takeda Pharmaceutical Company Limited, priority 2013, dated 2016).

The target of assay [1] is human orexin receptor 2 (Homo sapiens (Human), UniProt O43614). Briefly: Orexin antagonist activity, intracellular calcium FLIPR assay (orexin receptor 2). It counts as cell-based. The settings on record: RBL-2H3 cells stably expressing human orexin receptor 2; Ca2+ dye FLIPR; compound 15 minutes before orexin-A at approximately 80% maximal response; read-out: Human Orexin2R IC50. As to the method: (§1) Orexin antagonist activity was determined by measuring changes in intracellular calcium levels using a Ca^2+ sensitive fluorescent dye. The changes in fluorescent signal were monitored by Fluorescent Imaging Plate Reader (FLIPR™) technology available from Molecular Devices, LLC, U.S.A. Orexin mediated increases in intracellular Ca^2+ concentration were readily detected upon activation with orexin-A. Twenty-four hours prior to the assay, RBL-2H3 cells stably expressing either human orexin receptor 1 or human orexin receptor 2 were seeded in cell culture medium in black, clear-bottom 384-well plates (commercially available from Corning Inc., U.S.A.) and grown overnight at 37° C., 5% CO2. On the day of the assay, cell culture media was removed and cells were loaded with Calcium 5 Dye (commercially sold by Molecular Devices, LLC, U.S.A.) for 1 hour at 37° C., 5% CO2. Test compounds (at 10 point half log concentration response curves from 10 μM) were added to cells for 15 minutes prior to the addition of orexin-A to all wells, to achieve a final concentration that produces approximately an 80% maximal response. The IC50 values were determined from ten point concentration response curves. Curves were generated using the average of two wells for each data point.
Sequence of human orexin receptor 2 (O43614 whole entry): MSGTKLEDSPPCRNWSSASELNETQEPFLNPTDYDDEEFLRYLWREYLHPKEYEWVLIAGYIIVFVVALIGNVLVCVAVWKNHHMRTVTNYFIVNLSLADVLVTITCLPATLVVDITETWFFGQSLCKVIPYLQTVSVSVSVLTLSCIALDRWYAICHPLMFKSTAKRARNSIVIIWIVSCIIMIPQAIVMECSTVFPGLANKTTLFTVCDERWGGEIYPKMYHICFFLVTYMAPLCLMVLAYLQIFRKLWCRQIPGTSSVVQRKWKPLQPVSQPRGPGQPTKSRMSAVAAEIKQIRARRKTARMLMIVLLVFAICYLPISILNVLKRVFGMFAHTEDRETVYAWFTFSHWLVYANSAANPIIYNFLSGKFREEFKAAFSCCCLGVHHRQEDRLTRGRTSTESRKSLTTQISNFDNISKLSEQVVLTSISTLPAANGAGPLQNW
(In general: Calcium assays in cells follow changes in intracellular calcium, usually with a dye or a luminescent sensor.)

In assay [2] the target is human orexin receptor 1 (Homo sapiens (Human), UniProt O43613). The assay can be described thus: Orexin antagonist activity, intracellular calcium FLIPR assay (orexin receptor 1). It counts as cell-based. Particulars: RBL-2H3 cells stably expressing human orexin receptor 1; Ca2+ dye FLIPR; compound 15 minutes before orexin-A at approximately 80% maximal response; read-out: Human Orexin1R IC50. The method, then: as §1
Sequence of human orexin receptor 1 (O43613 whole entry): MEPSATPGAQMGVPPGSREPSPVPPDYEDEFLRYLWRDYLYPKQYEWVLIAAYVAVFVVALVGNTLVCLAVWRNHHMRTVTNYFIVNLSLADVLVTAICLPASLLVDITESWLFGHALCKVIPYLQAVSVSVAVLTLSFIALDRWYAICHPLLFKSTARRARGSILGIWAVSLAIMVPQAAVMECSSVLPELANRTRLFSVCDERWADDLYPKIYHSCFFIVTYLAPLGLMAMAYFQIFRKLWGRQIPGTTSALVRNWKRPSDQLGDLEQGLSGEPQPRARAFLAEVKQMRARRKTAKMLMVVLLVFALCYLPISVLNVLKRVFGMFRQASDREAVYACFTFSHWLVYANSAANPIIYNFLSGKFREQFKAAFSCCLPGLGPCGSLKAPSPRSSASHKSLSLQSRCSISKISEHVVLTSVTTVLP

pIC50: −log10 of the molar value. A value given as a limit tells only on which side of the number the result lay.

As a reminder, the pIC50 is the negative decadic logarithm of the IC50, by convention in mol/L. On to `Cc1ccc(-n2nccn2)c(C(=O)NC2CCCC2Cc2ccc3ccccc3n2)c1` (single isomer, unassigned) [Example 61, 5-Methyl-N-[2-(quinolin-2-ylmethyl)cyclopentyl]-2-(2H-1,2,3-triazol-2-yl)benzamide], for which the pIC50 is less than 5.00 in assay [1] and 7.46 in assay [2].
With `Cc1ccc(-n2nccn2)c(C(=O)NC2CCCC2Cc2ccc3ccccc3n2)c1` (single isomer, unassigned) [Example 62, 5-Methyl-N-[2-(quinolin-2-ylmethyl)cyclopentyl]-2-(2H-1,2,3-triazol-2-yl)benzamide], the pIC50 in assay [1] and in assay [2] was less than 5.00 in each case.
As to `O=C(NC1COCC1Nc1nc2ccc(F)cc2s1)c1ccccc1-n1nccn1` (single isomer, unassigned) [Example 100, trans-N-{4-[(6-Fluoro-1,3-benzothiazol-2-yl)amino]oxolan-3-yl}-2-(2H-1,2,3-triazol-2-yl)benzamide], the pIC50 in assay [1] is less than 5.00; in assay [2] it was 7.66.
On the same counts, the results for `O=C(NC1COCC1Nc1nc2ccc(F)cc2s1)c1ccccc1-n1nccn1` (single isomer, unassigned) [Example 101, trans-N-{4-[(6-Fluoro-1,3-benzothiazol-2-yl)amino]oxolan-3-yl}-2-(2H-1,2,3-triazol-2-yl)benzamide] are 5.42 and 6.14.
On the same counts, the results for `O=C(NC1CC(F)(F)CC1Nc1nc2ccc(F)cc2s1)c1ccccc1-n1nccn1` (single isomer, unassigned) [Example 103, N-{4,4-Difluoro-2-[(6-fluoro-1,3-benzothiazol-2-yl)amino]cyclopentyl}-2-(2H-1,2,3-triazol-2-yl)benzamide] are 6.20 and 6.58.
In the case of `O=C(NC1CC(F)(F)CC1Nc1nc2ccc(F)cc2s1)c1ccccc1-n1nccn1` (single isomer, unassigned) [Example 104, N-{4,4-Difluoro-2-[(6-fluoro-1,3-benzothiazol-2-yl)amino]cyclopentyl}-2-(2H-1,2,3-triazol-2-yl)benzamide], the results for the pIC50 in assay [1] and in assay [2] were 5.35 and 7.89, respectively.
Turning to `COc1cccc(OC)c1C(=O)NC1C[C@@H](O)CC1Nc1nc2ccc(Cl)cc2s1` (stereo in doubt) [Example 25, N-[(1S,2R,4R)-2-[(6-Chloro-1,3-benzothiazol-2-yl)amino]-4-hydroxycyclopentyl]-2,6-dimethoxybenzamide], the pIC50 is 6.89 in assay [1] and 6.47 in assay [2].
On the same counts, the results for `COc1cccc(OC)c1C(=O)N[C@H]1CC(F)C[C@H]1Nc1nc2ccc(Cl)cc2s1` (stereo in doubt) [Example 26, N-[(1S,2R)-2-[(6-Chloro-1,3-benzothiazol-2-yl)amino]-4-fluorocyclo-pentyl]-2,6-dimethoxybenzamide] are less than 5.00 and 7.19.
Take `Cc1ccccc1C(=O)NC1CCC[C@@H]1Nc1nc2ccc(F)cc2s1` (stereo in doubt) [Example 51, N-[(1S,2S)-2-[(6-Fluoro-1,3-benzothiazol-2-yl)amino]cyclopentyl]-2-methylbenzamide]: the pIC50 in assay [1] is 5.40; in assay [2], 6.60.
On the same counts, the results for `O=C(N[C@H]1CCCC1Nc1nc2ccc(F)cc2s1)c1ccccc1-n1nccn1` (stereo in doubt) [Example 75, N-[(1S,2R)-2-[(6-Fluoro-1,3-benzothiazol-2-yl)amino]cyclopentyl]-2-(2H-1,2,3-triazol-2-yl)benzamide] are 6.59 and 8.30.
On the same counts, the results for `O=C(NC1CCC[C@@H]1Nc1nc2ccncc2s1)c1ccccc1-n1nccn1` (stereo in doubt) [Example 97, N-[(1S,2S)-2-({[1,3]Thiazolo[5,4-c]pyridin-2-yl}amino)cyclopentyl]-2-(2H-1,2,3-triazol-2-yl)benzamide] are less than 5.00 and 6.11.
On the same counts, the results for `Cc1noc(-c2ccccc2C(=O)NC2CCC[C@@H]2Nc2nc3ccc(F)cc3o2)n1` (stereo in doubt) [Example 99, N-[(1S,2S)-2-[(6-Fluoro-1,3-benzoxazol-2-yl)amino]cyclopentyl]-2-(3-methyl-1,2,4-oxadiazol-5-yl)benzamide] are less than 5.00 and 7.92.
`COc1cccc(OC)c1C(=O)N[C@H]1CCC[C@H]1Nc1cnc2ccccc2n1` [Example 1, 2,6-Dimethoxy-N-[(1S,2R)-2-[(quinoxalin-2-yl)amino]cyclopentyl]-benzamide]: the pIC50 is 7.01 in assay [1] and 9.08 in assay [2].
For `COc1cccc(OC)c1C(=O)N[C@H]1CCC[C@@H]1Nc1cnc2ccccc2n1` [Example 2, 2,6-Dimethoxy-N-((1S,2S)-2-(quinoxalin-2-ylamino)cyclopentyl)benzamide], the results for the pIC50 in assay [1] and in assay [2] were 5.19 and 7.44, respectively.
On the same counts, the results for `COc1cccc(OC)c1C(=O)N[C@H]1CCC[C@@H]1Nc1nc2ccc(F)cc2s1` [Example 3, N-[(1S,2S)-2-[(6-Fluoro-1,3-benzothiazol-2-yl)amino]cyclopentyl]-2,6-dimethoxybenzamide] are 5.12 and 8.38.
On the same counts, the results for `COc1cccc(OC)c1C(=O)N[C@H]1CCC[C@@H]1Nc1nc2ccccc2s1` [Example 4, N-[(1S,2S)-2-[(1,3-Benzothiazol-2-yl)amino]cyclopentyl]-2,6-dimethoxybenzamide] are less than 5.00 and 7.92.
On the same counts, the results for `COc1cccc(OC)c1C(=O)N[C@H]1CCC[C@H]1Nc1nc2ccccc2s1` [Example 5, N-[(1S,2R)-2-[(1,3-Benzothiazol-2-yl)amino]cyclopentyl]-2,6-dimethoxybenzamide] are 6.29 and 7.92.
With `COc1cccc(OC)c1C(=O)N[C@H]1CCC[C@@H]1Nc1nc2cc(Cl)ccc2s1` [Example 6, N-[(1S,2S)-2-[(5-Chloro-1,3-benzothiazol-2-yl)amino]cyclopentyl]-2,6-dimethoxybenzamide], the pIC50 was less than 5.00 in assay [1] and 7.46 in assay [2].
For `COc1cccc(OC)c1C(=O)N[C@H]1CCC[C@H]1Nc1nc2ccccc2o1` [Example 7, N-[(1S,2R)-2-[(1,3-Benzoxazol-2-yl)amino]cyclopentyl]-2,6-dimethoxybenzamide], the results for the negative-log IC50 (pIC50) in assay [1] and in assay [2] were 5.72 and 7.59, respectively.
`COc1cccc(OC)c1C(=O)N[C@H]1CCC[C@@H]1N(C)c1nc2ccc(F)cc2s1` [Example 8, N-[(1S,2S)-2-[(6-Fluoro-1,3-benzothiazol-2-yl)(methyl)amino]cyclopentyl]-2,6-dimethoxybenzamide]: the figures for the pIC50 in assay [1] and in assay [2] were 5.68 and 7.46, respectively.
As for `COc1cccc(OC)c1C(=O)N[C@H]1CCC[C@@H]1Nc1nc2ccccc2o1` [Example 9, N-[(1S,2S)-2-[(1,3-Benzoxazol-2-yl)amino]cyclopentyl]-2,6-dimethoxy-benzamide], the figures for the pIC50 in assay [1] and in assay [2] were less than 5.00 and 7.00, respectively.
On the same counts, the results for `COc1cccc(OC)c1C(=O)N[C@H]1CCC[C@@H]1Nc1nc2ccc(Cl)cc2s1` [Example 10, N-[(1S,2S)-2-[(6-Chloro-1,3-benzothiazol-2-yl)amino]cyclopentyl]-2,6-dimethoxybenzamide] are 5.14 and 6.68.
`COc1cccc(OC)c1C(=O)N[C@@H]1CCC[C@H]1Nc1nc2ccccc2s1` [Example 11, N-[(1R,2R)-2-[(1,3-Benzothiazol-2-yl)amino]cyclopentyl]-2,6-dimethoxybenzamide]: the values for the pIC50 in assay [1] and in assay [2] were 5.74 and 6.44, respectively.
On the same counts, the results for `COc1cccc(OC)c1C(=O)N[C@@H]1CCC[C@H]1Nc1nc2ccccc2o1` [Example 12, N-[(1R,2R)-2-[(1,3-Benzoxazol-2-yl)amino]cyclopentyl]-2,6-dimethoxy-benzamide] are 5.46 and 6.33.
On the same counts, the results for `COc1cccc(OC)c1C(=O)N[C@@H]1CCC[C@@H]1Nc1nc2ccc(Cl)cc2s1` [Example 13, N-[(1R,2S)-2-[(6-Chloro-1,3-benzothiazol-2-yl)amino]cyclopentyl]-2,6-dimethoxybenzamide] are 5.28 and 6.24.
On the same counts, the results for `COc1cccc(OC)c1C(=O)N[C@@H]1CCC[C@H]1Nc1nc2ccc(Cl)cc2s1` [Example 14, N-[(1R,2R)-2-[(6-Chloro-1,3-benzothiazol-2-yl)amino]cyclopentyl]-2,6-dimethoxybenzamide] are 6.17 and 6.00.
For `COc1cccc(OC)c1C(=O)N[C@H]1CCC[C@H]1Nc1nc2ccc(Cl)cc2s1` [Example 15, N-[(1S,2R)-2-[(6-Chloro-1,3-benzothiazol-2-yl)amino]cyclopentyl]-2,6-dimethoxybenzamide], the pIC50 is 6.80 in assay [1] and 7.46 in assay [2].
On the same counts, the results for `Cc1ccc(-n2nccn2)c(C(=O)N[C@H]2CCC[C@@H]2Nc2nc3ccc(F)cc3s2)c1` [Example 16, N-[(1S,2S)-2-[(6-Fluoro-1,3-benzothiazol-2-yl)amino]cyclopentyl]-5-methyl-2-(2H-1,2,3-triazol-2-yl)benzamide] are 5.70 and 7.89.
